Results: patent US10703755B2, “Substituted purine derivative” (SUMITOMO DAINIPPON PHARMA CO., LTD., priority 2016, dated 2020)
pIC50: −log10 of the molar value.

Target: human TLR7 (Homo sapiens (Human), UniProt Q9NYK1)
Assay: Test for evaluating the inhibition of the activation of human TLR7 (SEAP reporter, TLR7/NF-κB/SEAPorter HEK293 cell)
Assay type: cell-based
Conditions: R-848 200 nmol/L; for inhibitory effect against TLR7 in the test for evaluating inhibition of the activation of TLR7: SEAP activity, result in words; for pIC50: SEAP reporter
Procedure: As human TLR7 expressing cell line, HEK293 cell line was bought from IMGENEX Corporation (TLR7/NF-ηB/SEAPorter™ HEK293 cell), which is human embryonic kidney cell line and stably expresses full-length human TLR7 gene and secreted alkaline phosphatase (SEAP) reporter gene under the transcriptional control of an NE-ηB response element. The TLR7/NF-ηB/SEAPorter™ HEK293 cell was cultivated with DMEM containing 10% fetal bovine serum (FBS) and 10 μg/mL blasticidin S at 37° C. in the presence of 5% CO2. The TLR7/NF-ηB/SEAPorter™ HEK293 cell was seeded into 96-well microtiter plate at 5×10^4 cell/90 μL/well, and the place was cultivated at 37° C. in a CO2 incubator overnight.
Each compound prepared in the Examples was evaluated by Test 1.

human TLR7, sequence (Q9NYK1 27-1049): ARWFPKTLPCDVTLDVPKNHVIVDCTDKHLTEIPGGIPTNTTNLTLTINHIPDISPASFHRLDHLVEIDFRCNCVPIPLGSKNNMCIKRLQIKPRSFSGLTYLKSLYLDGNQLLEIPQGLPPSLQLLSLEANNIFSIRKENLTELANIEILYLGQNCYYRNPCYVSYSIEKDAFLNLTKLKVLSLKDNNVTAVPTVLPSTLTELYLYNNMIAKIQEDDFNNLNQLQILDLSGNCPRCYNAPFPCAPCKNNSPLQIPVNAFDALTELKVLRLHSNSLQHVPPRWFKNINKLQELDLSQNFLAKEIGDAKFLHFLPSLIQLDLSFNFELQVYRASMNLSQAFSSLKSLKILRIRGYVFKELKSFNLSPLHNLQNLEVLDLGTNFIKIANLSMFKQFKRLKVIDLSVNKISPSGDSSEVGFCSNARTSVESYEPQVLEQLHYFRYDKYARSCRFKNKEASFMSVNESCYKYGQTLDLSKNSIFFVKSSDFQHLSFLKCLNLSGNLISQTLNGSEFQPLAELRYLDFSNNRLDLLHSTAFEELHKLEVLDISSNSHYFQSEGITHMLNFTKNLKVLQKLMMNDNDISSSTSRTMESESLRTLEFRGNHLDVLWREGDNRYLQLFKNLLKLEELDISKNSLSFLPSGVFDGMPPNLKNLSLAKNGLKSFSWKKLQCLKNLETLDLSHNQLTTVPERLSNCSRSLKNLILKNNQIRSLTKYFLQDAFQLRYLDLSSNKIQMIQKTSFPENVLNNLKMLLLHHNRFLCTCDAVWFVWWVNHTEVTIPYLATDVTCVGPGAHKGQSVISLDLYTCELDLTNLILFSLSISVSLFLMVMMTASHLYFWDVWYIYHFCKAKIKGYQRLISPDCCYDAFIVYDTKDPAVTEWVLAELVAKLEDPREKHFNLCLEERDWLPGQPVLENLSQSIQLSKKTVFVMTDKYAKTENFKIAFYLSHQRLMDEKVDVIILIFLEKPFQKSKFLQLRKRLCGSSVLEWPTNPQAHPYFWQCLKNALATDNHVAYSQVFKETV

Row | inhibitory effect against TLR7 in the test for evaluating inhibition of the activation of TLR7 | pIC50 | SMILES
1 | potent inhibitory effect against TLR7 | 7.30 | COc1nc(C)c2nc(-c3cncc(F)c3)n(Cc3ccc(OC4CN(C)C4)cc3F)c2n1 [Example 416, 9-{2-fluoro-4-[(1-methylazetidin-3-yl)oxy]benzyl}-8-(5-fluoropyridin-3-yl)-2-methoxy-6-methyl-9H-purine]
2 | potent inhibitory effect against TLR7 | 7.21 | COc1nc(C)c2nc(-c3cncc(C#N)c3)n(Cc3ccc(C4CCN(C)CC4)cc3F)c2n1 [Example 288]
3 |  | 5.38 | COCCOc1nc(N)c2nc(-c3cncc(F)c3)n(Cc3cccc(CN4CCOCC4)c3)c2n1 [Example 90]
4 |  | 5.09 | CCCCN(C)c1nc(N)c2nc(-c3cncc(F)c3)n(Cc3ccc(CN(C)C)cc3)c2n1 [Example 155]
5 |  | 5.80 | CCOc1nc(C)c2nc(-c3cncc(F)c3)n(Cc3cnc(C4=CN5CCC4CC5)cc3OC)c2n1 [Example 355]
6 |  | 5.54 | CN(C)Cc1ccc(Cn2c(-c3cncc(F)c3)nc3c(N)nc(OCC4CCOCC4)nc32)cc1 [Example 152]
7 | potent inhibitory effect against TLR7 | 7.40 | CCOc1nc(C)c2nc(-c3cncc(F)c3)n(Cc3cnn(CC4CCN(C)C4)c3)c2n1 (centres unmarked) [Example 279]
8 |  | 5.69 | CCOc1nc(N)c2nc(-c3cncc(F)c3)n(Cc3cccc(C#N)c3)c2n1 [Example 237]
9 |  | 6.77 | COc1nc(C)c2nc(-c3cncc(F)c3)n(Cc3ccc(CO)cc3F)c2n1 [Example 258]
10 |  | 6.52 | COCCOc1nc(C)c2nc(-c3cncc(F)c3)n(Cc3ccc(CN4CCOCC4)cc3)c2n1 [Example 114]
11 |  | 6.02 | CN(C)Cc1ccc(Cn2c(-c3cncc(F)c3)nc3c(N)nc(Cl)nc32)cc1 [Example 118]
12 | potent inhibitory effect against TLR7 | 7.28 | CCOc1nc(N)c2nc(-c3cncc(F)c3)n(Cc3ccc(C4CCN(C)CC4)cc3)c2n1 [Example 127, 2-Ethoxy-8-(5-fluoropyridin-3-yl)-9-[4-(1-methylpiperidin-4-yl)benzyl]-9H-purine-6-amine]
13 |  | 6.33 | CCOc1nc(C)c2nc(-c3cncc(F)c3)n(Cc3ccc(C4=CN5CCC4CC5)cc3OCC)c2n1 [Example 356]
14 |  | 6.43 | COCCOc1nc(N)c2nc(-c3cncc(F)c3)n(Cc3ccc(CN4CCC(F)(F)CC4)cc3)c2n1 [Example 92]
15 |  | 6.68 | CCOc1nc(C)c2nc(-c3cncc(F)c3)n(Cc3cnn(CC4CCNCC4)c3)c2n1 [Example 428]
16 |  | 5.85 | CCOc1nc(C)c2nc(-c3cncc(F)c3)n(Cc3cccnc3)c2n1 [Example 168]
17 |  | 6.40 | CCCCOc1nc(N)c2nc(-c3cncc(F)c3)n(Cc3ccc(CN(C)C)cc3)c2n1 [Example 82]
18 |  | 5.62 | CCOc1nc(N)c2nc(-c3cncc(F)c3)n(Cc3ccc(CO)cc3)c2n1 [Example 77, (4-{[6-Amino-2-ethoxy-8-(5-fluoropyridin-3-yl)-9H-purin-9-yl]methyl}phenyl)methanol]
19 | potent inhibitory effect against TLR7 | 7.70 | CCOc1nc(N)c2nc(-c3cncc(F)c3)n(Cc3ccc(CN4C[C@@H]5C[C@H]4CN5C)cc3)c2n1 [Example 94]
20 | potent inhibitory effect against TLR7 | 7.21 | CCOc1nc(N)c2nc(-c3cncc(F)c3)n(Cc3ccc(CN4CC(C)(O)C4)cc3)c2n1 [Example 106]
21 | potent inhibitory effect against TLR7 | 7.21 | COc1nc(C)c2nc(-c3cncc(F)c3)n(Cc3ccc(CC4CCNCC4)cc3F)c2n1 [Example 432]
22 | potent inhibitory effect against TLR7 | 7.15 | CCOc1nc(N)c2nc(-c3cncc(F)c3)n(Cc3ccc(CN4C[C@@H]5C[C@H]4CN5C4COC4)cc3)c2n1 [Example 129]
23 |  | 5.94 | CCOC1CN(Cc2ccc(Cn3c(-c4cncc(F)c4)nc4c(C)nc(OC)nc43)c(F)c2)C1 [Example 261]
24 | potent inhibitory effect against TLR7 | 7.48 | CCOc1nc(C)c2nc(-c3cncc(F)c3)n(Cc3ccc(CN4C[C@@H]5C[C@H]4CN5)cc3)c2n1 [Example 123, 9-{4-[(1S,4S)-2,5-Diazabicyclo[2.2.1]hept-2-ylmethyl]benzyl}-2-ethoxy-8-(5-fluoropyridin-3-yl)-6-methyl-9H-purine]

More lines, now with the values behind:

Row | SMILES | inhibitory effect against TLR7 in the test for evaluating inhibition of the activation of TLR7 | pIC50
25 | CCOc1nc(N)c2nc(-c3cncc(F)c3)n(Cc3ccc(OC4CCN(C)CC4)nc3)c2n1 [Example 60] |  | 6.64
26 | COCCOc1nc(N)c2nc(-c3cncc(F)c3)n(Cc3ccccc3)c2n1 [Example 25] |  | 5.46
27 | CCCCOc1nc(N)c2nc(-c3cncc(C)c3)n(Cc3ccccc3)c2n1 [Example 18] |  | 5.57
28 | CCOc1nc(C)c2nc(-c3cncc(F)c3)n(Cc3ccc(C4CN5CCC4CC5)nc3OC)c2n1 (centres unmarked) [Example 327] | potent inhibitory effect against TLR7 | 7.64
29 | CCCCOc1nc(N)c2nc(-c3cccnc3)n(Cc3ccccc3)c2n1 [Example 2] |  | 5.26
30 | COCCOc1nc(N)c2nc(-c3cncc(OC)c3)n(Cc3ccccc3)c2n1 [Example 24] |  | 4.86
31 | CCOc1nc(C)c2nc(-c3cncc(F)c3)n(Cc3cnc(C4CN5CCC4CC5)cc3C)c2n1 (centres unmarked) [Example 330] |  | 6.67
32 | COc1nc(C)c2nc(-c3cncc(F)c3)n(Cc3ccc(O[C@@H]4CN5CCC4CC5)nc3)c2n1 [Example 69, 9-({6-[(3S)-1-azabicyclo[2.2.2]oct-3-yloxy]pyridin-3-yl}methyl)-8-(5-fluoropyridin-3-yl)-2-methoxy-6-methyl-9H-purine] | potent inhibitory effect against TLR7 | 6.89
33 | CCOc1nc(N)c2nc(-c3cncc(F)c3)n(Cc3ccc(N4CCN(C)CC4)cc3)c2n1 [Example 68, 2-Ethoxy-8-(5-fluoropyridin-3-yl)-9-[4-(4-methylpiperazin-1-yl)benzyl]-9H-purine-6-amine] |  | 6.74
34 | COc1nc(C)c2nc(-c3cncc(F)c3)n(Cc3ccc(C4CN5CCC4CC5)cc3F)c2n1 (centres unmarked) [Example 314] | potent inhibitory effect against TLR7 | 8.10
35 | CCOc1nc(C)c2nc(-c3cncc(F)c3)n(Cc3ccc(O[C@@H]4CN5CCC4CC5)nc3)c2n1 [Example 71, 9-({6-[(3S)-1-azabicyclo[2.2.2]oct-3-yloxy]pyridin-3-yl}methyl)-2-ethoxy-8-(5-fluoropyridin-3-yl)-6-methyl-9H-purine] | potent inhibitory effect against TLR7 | 7.24
36 | CCOc1nc(C)c2nc(-c3cncc(F)c3)n(Cc3ccc(C4CN5CCC4CC5)nc3C#N)c2n1 (centres unmarked) [Example 382] |  | 6.24
37 | CCCCOc1nc(N)c2nc(-c3cncc(F)c3)n(Cc3ccccc3)c2n1 [Example 1, 9-Benzyl-2-butoxy-8-(5-fluoropyridin-3-yl)-9H-purine-6-amine] |  | 5.64
38 | CCOc1nc(C)c2nc(-c3cncc(F)c3)n(Cc3cnc(C4CN5CCC4CC5)c(F)c3)c2n1 (centres unmarked) [Example 383] | potent inhibitory effect against TLR7 | 7.08
39 | CCCOc1nc(C)c2nc(-c3cncc(C)c3)n(Cc3ccc(O[C@@H]4CN5CCC4CC5)nc3)c2n1 [Example 76] |  | 6.40
40 | COc1nc(C)c2nc(-c3cncc(F)c3)n(Cc3ccc(C4CN5CCC4CC5)cn3)c2n1 (centres unmarked) [Example 371] |  | 6.58
41 | CCCCOc1nc(N)c2nc(-c3cncnc3)n(Cc3ccccc3)c2n1 [Example 5] |  | 5.85
42 | COc1nc(C)c2nc(-c3ccc(C)nc3)n(Cc3ccc(C4CN5CCC4CC5)cc3F)c2n1 (centres unmarked) [Example 306] | potent inhibitory effect against TLR7 | 7.40
43 | CCCCOc1nc(N)c2nc(-c3cccc(OC)c3)n(Cc3ccccc3)c2n1 [Example 12] |  | 5.04
44 | CCOc1nc(N)c2nc(-c3cncc(F)c3)n(Cc3ccc(O[C@@H]4CCN(C)C4)nc3)c2n1 [Example 38] |  | 6.28
45 | COc1nc(C)c2nc(-c3ccncc3)n(Cc3ccc(C4CN5CCC4CC5)cc3F)c2n1 (centres unmarked) [Example 347] | potent inhibitory effect against TLR7 | 7.46
46 | CCOc1nc(N)c2nc(-c3cncc(F)c3)n(Cc3cccc(OCCN4CCCC4)c3)c2n1 [Example 51] | potent inhibitory effect against TLR7 | 7.23
47 | CCCOc1nc(C)c2nc(-c3cncc(F)c3)n(Cc3ccc(O[C@@H]4CN5CCC4CC5)nc3)c2n1 [Example 75] |  | 6.70
48 | COc1nc(C)c2nc(-c3cncnc3)n(Cc3ccc(O[C@@H]4CN5CCC4CC5)cc3F)c2n1 [Example 323, 9-{4-[(3S)-1-azabicyclo[2.2.2]oct-3-yloxy]-2-fluorobenzyl}-2-methoxy-6-methyl-8-(pyrimidin-5-yl)-9H-purine] | potent inhibitory effect against TLR7 | 7.15
49 | CCCCOc1nc(N)c2nc(-c3ccccn3)n(Cc3ccccc3)c2n1 [Example 35] |  | 4.74
50 | CCCCOc1nc(N)c2nc(-c3cncc(COC)c3)n(Cc3ccccc3)c2n1 [Example 29] |  | 6.00
